Earlier results as cited in US20030170327A1, “Vitamin and zinc monomethionine compositions” (priority 2002, published 2003).

Conditions: versus other forms of zinc found in nutritional supplements

## CSCC[C@H](N)C(=O)O.[Zn] [zinc monomethionine]
  absorption in comparison to other forms of zinc: better absorbed
  retention in comparison to other forms of zinc: retained longer
